Laboratory results: patent US9115144B2, “Fused heterocyclic derivative and pharmaceutical use thereof” (KISSEI PHARMACEUTICAL CO., LTD., priority 2011, dated 2015)

Experiments:
[1] = molecular target: Xanthine oxidase (from bovine milk, Sigma) (Bos taurus (Bovine), UniProt P80457); assay: Xanthine oxidase inhibitory activity; assay type: biochemical; conditions: xanthine 200 μM added at 100 μL/well, 10 minutes at room temperature, absorbance at 290 nm
Description: Xanthine Oxidase Inhibitory Activity
(1) Preparation of Test Compounds
Test compounds were dissolved in dimethyl sulfoxide (DMSO) (manufactured by Wako pure chemical) at 40 mM concentration and then diluted to intended concentrations with phosphate-buffered saline (PBS).
(2) Method for Measurement
Xanthine oxidase (from bovine milk, Sigma) was prepared with phosphate-buffered saline (PBS) at 0.02 units/mL, and then the solution was added to 96 well plates at 50 μL/well. In addition, test compounds diluted with PBS were added at 50 μL/well. Xanthine (manufactured by Wako pure chemical) at 200 μM prepared with PBS was added at 100 μL/well, and the reaction was conducted for 10 minutes at room temperature. Absorbance at 290 nm was measured by using a microplate reader SpectraMax Plus 384 (manufactured by Molecular device). The absorbance under a condition without xanthine is 0%, and control without test compounds is 100%. Fifty % inhibitory concentration of a test compounds (IC50) was calculated (Table 5). “Ex. No.” in the table indicates Example number.

human URAT1 = human URAT1 (Homo sapiens (Human), UniProt Q96S37); assay: Inhibitory activity of uric acid transport with human URAT1 expressing cells; assay type: cell-based; conditions: 10 μM test compound; URAT1-expressing HEK293 cells; 14C uric acid 50 μM, 2 minutes at 37° C.; read-out: Percent inhibition of uric acid uptake
Description: Inhibitory Activity of Uric Acid Transport with Human URAT1 Expressing Cells
(1) Cells Used in the Test
URAT1-expressing HEK293 cells (HEK293 cells transfected with vector containing human URAT1 cDNA) and control cells (HEK293 cells transfected with vector alone) were used.
URAT1-expressing cells and control cells were seeded in collagen I-coated 24-well plates (manufactured by Becton, Dickinson and Company) at 1 to 4×10^5 cells/well, and cultured in CO2 incubator (37° C., CO2: 5%) for 1 to 3 days, and then the following measurement of uric acid transport was conducted. […]
After the medium was removed from the plates in which cells were seeded, and 1 mL of HBSS was added to the cells. […] The radioactivity was measured by means of a liquid scintillation counter. […]
Protein concentration in the cell lysates was determined by BCA Protein Assay Kit (manufactured by Pierce) and then amount of protein (mg/well) was calculated. […]
Uric acid uptake activity in each well was calculated by the following formula. Uric acid uptake activity (p mol/mg protein)=radioactivity (dpm/well)/[amount of protein (mg/well)×concentration of radioactivity in HBSS containing ^14C uric acid (dpm/p mol)]
Percent inhibition was calculated according to the following formula. […]

Sequence of Xanthine oxidase (from bovine milk, Sigma) (P80457 whole entry): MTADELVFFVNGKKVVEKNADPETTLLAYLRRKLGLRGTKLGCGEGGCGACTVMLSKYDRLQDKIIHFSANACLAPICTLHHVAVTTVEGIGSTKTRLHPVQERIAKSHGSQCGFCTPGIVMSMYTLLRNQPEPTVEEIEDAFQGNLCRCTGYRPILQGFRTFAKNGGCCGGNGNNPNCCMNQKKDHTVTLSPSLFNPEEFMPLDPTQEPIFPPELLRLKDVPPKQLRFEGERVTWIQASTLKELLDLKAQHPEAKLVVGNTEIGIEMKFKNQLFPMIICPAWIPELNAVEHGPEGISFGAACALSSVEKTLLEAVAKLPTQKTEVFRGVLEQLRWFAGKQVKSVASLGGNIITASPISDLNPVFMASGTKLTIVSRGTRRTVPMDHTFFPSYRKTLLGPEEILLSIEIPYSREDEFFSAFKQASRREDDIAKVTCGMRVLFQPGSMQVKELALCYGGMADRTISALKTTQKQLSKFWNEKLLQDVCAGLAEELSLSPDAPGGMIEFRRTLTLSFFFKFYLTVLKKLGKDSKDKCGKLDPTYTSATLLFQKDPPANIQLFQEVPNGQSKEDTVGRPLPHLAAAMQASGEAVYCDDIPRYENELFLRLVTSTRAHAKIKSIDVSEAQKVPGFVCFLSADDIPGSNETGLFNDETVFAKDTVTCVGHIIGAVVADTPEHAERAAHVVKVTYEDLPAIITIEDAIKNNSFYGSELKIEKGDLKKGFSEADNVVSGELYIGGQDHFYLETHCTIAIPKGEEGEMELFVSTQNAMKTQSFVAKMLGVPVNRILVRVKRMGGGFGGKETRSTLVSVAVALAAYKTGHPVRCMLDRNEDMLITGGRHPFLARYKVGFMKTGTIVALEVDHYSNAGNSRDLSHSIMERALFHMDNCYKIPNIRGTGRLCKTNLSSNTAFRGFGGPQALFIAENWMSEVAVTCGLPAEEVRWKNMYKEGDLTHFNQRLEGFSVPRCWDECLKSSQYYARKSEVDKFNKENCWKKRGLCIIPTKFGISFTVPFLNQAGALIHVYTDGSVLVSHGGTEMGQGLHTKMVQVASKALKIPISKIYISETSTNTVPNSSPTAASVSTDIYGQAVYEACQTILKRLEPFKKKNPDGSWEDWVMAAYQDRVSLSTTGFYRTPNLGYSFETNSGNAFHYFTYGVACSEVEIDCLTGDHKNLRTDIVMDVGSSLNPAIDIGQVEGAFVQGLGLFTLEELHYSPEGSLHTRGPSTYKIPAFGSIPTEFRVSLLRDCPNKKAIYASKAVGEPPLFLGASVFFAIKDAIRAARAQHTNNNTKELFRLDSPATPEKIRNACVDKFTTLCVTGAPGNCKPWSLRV
Sequence of human URAT1 (Q96S37 whole entry): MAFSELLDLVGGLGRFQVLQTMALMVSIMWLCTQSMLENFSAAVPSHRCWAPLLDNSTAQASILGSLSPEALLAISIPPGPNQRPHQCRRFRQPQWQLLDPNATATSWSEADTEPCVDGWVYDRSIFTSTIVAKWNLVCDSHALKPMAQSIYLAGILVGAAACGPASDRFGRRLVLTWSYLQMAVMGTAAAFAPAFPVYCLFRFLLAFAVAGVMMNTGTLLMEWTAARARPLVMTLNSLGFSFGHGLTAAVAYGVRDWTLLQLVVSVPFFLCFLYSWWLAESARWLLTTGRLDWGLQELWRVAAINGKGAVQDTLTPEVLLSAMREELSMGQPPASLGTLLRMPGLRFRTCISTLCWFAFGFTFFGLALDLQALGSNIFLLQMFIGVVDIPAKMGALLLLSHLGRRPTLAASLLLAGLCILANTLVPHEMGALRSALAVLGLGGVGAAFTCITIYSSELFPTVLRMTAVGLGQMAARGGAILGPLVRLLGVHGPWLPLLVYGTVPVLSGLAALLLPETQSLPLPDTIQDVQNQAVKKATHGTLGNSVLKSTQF

Which IC50 [1] does the source give for `N#Cc1cn(-c2ccc(C(=O)O)c(O)c2)c2cscc12` [Example 7] here?
Its IC50 is 10 nM.

For `Cc1cc2c(s1)c(C#N)cn2-c1ccc(C(=O)O)c(O)c1` [Example 1, 4-(6-Cyano-2-methyl-thieno[3,2-b]pyrrol-4-yl)-2-hydroxybenzoic acid], which IC50 [1] is on record?
The IC50 was 13 nM.

Which IC50 [1] does the source give for `N#Cc1cn(-c2ccc(C(=O)O)c(O)c2)c2sc(Br)cc12` [Example 8] here?
The IC50 was 14 nM.

With `N#Cc1cn(-c2ccc(C(=O)O)c(O)c2)c2sccc12` [Example 9] as the molecule, how does the IC50 [1] read?
Its IC50 is 13 nM.

And the inhibition at 10 µM (human URAT1)?
Its inhibition at 10 µM is no less than 50%.

`N#Cc1cn(-c2ccc(C(=O)O)c(O)c2)c2ccsc12` [Example 5, 4-(6-Cyano-thieno[3,2-b]pyrrol-4-yl)-2-hydroxybenzoic acid] was tested. Which IC50 [1] did it give?
Its IC50 is 10 nM.
